Experimental data from ChEMBL document CHEMBL1201862, “PubChem BioAssay data set” (2004).
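Five concentrations, 48 hours, 96-well plates. GI50: concentration for 50% inhibition of growth.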 Activity calls are given as the source filed them. Rule as the data show it: active = GI50 up to about 1.1 µM and inactive = higher.

Experiments:
Test in all cases: growth of human tumour cells (NCI), 48 h
SNB-78 = test system: SNB-78
LXFL 529 = test system: LXFL 529
M19-MEL = test system: M19-MEL
OVCAR-8 = test system: OVCAR-8
DLD-1 = test system: DLD-1
MOLT-4 = test system: MOLT-4
UO-31 = test system: UO-31
XF498 = test system: XF498
RXF 393 = test system: RXF 393
K562 = test system: K562
NCI-H460 = test system: NCI-H460
HCT-15 = test system: HCT-15
SN12C = test system: SN12C
HT-29 = test system: HT-29
HOP-18 = test system: HOP-18
UACC-257 = test system: UACC-257
SK-MEL-2 = test system: SK-MEL-2
Malme-3M = test system: Malme-3M
HCC 2998 = test system: HCC 2998
SK-MEL-5 = test system: SK-MEL-5
SF-295 = test system: SF-295
KM12 = test system: KM12
SF-268 = test system: SF-268
TK-10 = test system: TK-10
ACHN = test system: ACHN
786-0 = test system: 786-0
OVCAR-4 = test system: OVCAR-4
IGROV-1 = test system: IGROV-1
M14 = test system: M14
HOP-62 = test system: HOP-62
HL-60 = test system: HL-60
SK-MEL-28 = test system: SK-MEL-28
SK-OV-3 = test system: SK-OV-3
COLO 205 = test system: COLO 205
OVCAR-3 = test system: OVCAR-3
RPMI-8226 = test system: RPMI-8226
SF-539 = test system: SF-539
U-251 = test system: U-251
OVCAR-5 = test system: OVCAR-5
NCI-H23 = test system: NCI-H23
SNB-75 = test system: SNB-75
NCI-H522 = test system: NCI-H522
CCRF-CEM = test system: CCRF-CEM
HOP-92 = test system: HOP-92
KM-20L2 = test system: KM-20L2
EKVX = test system: EKVX
UACC-62 = test system: UACC-62
LOX IMVI = test system: LOX IMVI
DMS-273 = test system: DMS-273
SNB-19 = test system: SNB-19
NCI-H226 = test system: NCI-H226
SW-620 = test system: SW-620
HCT-116 = test system: HCT-116
A549 = test system: A549
DMS-114 = test system: DMS-114
A498 = test system: A498
SR = test system: SR

Compound: CNC(N)NC
- GI50 (SNB-78): > 100 µM (inactive)
- GI50 (LXFL 529): > 100 µM (inactive)
- GI50 (M19-MEL): > 100 µM (inactive)
- GI50 (OVCAR-8): > 100 µM (inactive)
- GI50 (DLD-1): > 100 µM (inactive)
- GI50 (MOLT-4): > 100 µM (inactive)
- GI50 (UO-31): > 100 µM (inactive)
- GI50 (XF498): > 100 µM (inactive)
- GI50 (RXF 393): > 100 µM (inactive)
- GI50 (K562): > 100 µM (inactive)
- GI50 (NCI-H460): > 100 µM (inactive)
- GI50 (HCT-15): > 100 µM
- GI50 (SN12C): > 100 µM (inactive)
- GI50 (HT-29): > 100 µM (inactive)
- GI50 (HOP-18): > 100 µM (inactive)
- GI50 (UACC-257): > 100 µM (inactive)
- GI50 (SK-MEL-2): > 100 µM (inactive)
- GI50 (Malme-3M): > 100 µM (inactive)
- GI50 (HCC 2998): > 100 µM (inactive)
- GI50 (SK-MEL-5): > 100 µM (inactive)
- GI50 (SF-295): > 100 µM (inactive)
- GI50 (KM12): > 100 µM (inactive)
- GI50 (SF-268): > 100 µM (inactive)
- GI50 (TK-10): > 100 µM (inactive)
- GI50 (ACHN): > 100 µM (inactive)
- GI50 (786-0): > 100 µM (inactive)
- GI50 (OVCAR-4): > 100 µM (inactive)
- GI50 (IGROV-1): > 100 µM (inactive)
- GI50 (M14): > 100 µM (inactive)
- GI50 (HOP-62): > 100 µM (inactive)
- GI50 (HL-60): > 100 µM (inactive)
- GI50 (SK-MEL-28): > 100 µM (inactive)
- GI50 (SK-OV-3): > 100 µM (inactive)
- GI50 (COLO 205): > 100 µM (inactive)
- GI50 (OVCAR-3): > 100 µM (inactive)
- GI50 (RPMI-8226): > 100 µM (inactive)
- GI50 (SF-539): > 100 µM (inactive)
- GI50 (U-251): > 100 µM (inactive)
- GI50 (OVCAR-5): > 100 µM (inactive)
- GI50 (NCI-H23): > 100 µM (inactive)
- GI50 (SNB-75): > 100 µM (inactive)
- GI50 (NCI-H522): > 100 µM (inactive)
- GI50 (CCRF-CEM): > 100 µM (inactive)
- GI50 (HOP-92): > 100 µM (inactive)
- GI50 (KM-20L2): > 100 µM (inactive)
- GI50 (EKVX): > 100 µM (inactive)
- GI50 (UACC-62): > 100 µM (inactive)
- GI50 (LOX IMVI): > 100 µM (inactive)
- GI50 (DMS-273): > 100 µM (inactive)
- GI50 (SNB-19): > 100 µM (inactive)
- GI50 (NCI-H226): > 100 µM (inactive)
- GI50 (SW-620): > 100 µM (inactive)
- GI50 (HCT-116): > 100 µM (inactive)
- GI50 (A549): > 100 µM (inactive)
- GI50 (DMS-114): > 100 µM (inactive)
- GI50 (A498): > 100 µM (inactive)
- GI50 (SR): > 100 µM (inactive)
